Columns and labels:
adipocytes [1] = experiment: Adipocyte lipolysis in the biphasic electrical stimulation study, adipocytes from 4 women (Example III); type: cell-based, human; details: suprailiac adipocytes of 4 women aged 40-52; non significant level (FIG. 2)
Protocol: It was tested if biphasic electrical stimulation can induce lipolysis in adipocyte. 4 women between 40-52 years of age were used as subject. Adipose tissue was obtained from suprailiac areas through liposuction. It is disclosed that isoproterenol (ISO) increased adipocyte lipolysis by 15% i.e. at a non significant level (FIG. 2). […] Moreover, the 4 mA biphasic stimulation increased basal lipolysis by 1.8 x thus at a lower level than the 6 mA stimulation.

adipocytes [2] = experiment: Adipocyte lipolysis measured by glycerol release from isolated adipocytes (Examples I-II); type: cell-based, human; details: isoproterenol 10^-4 M, 30 minutes
Protocol: Tissue samples. Adipose tissues were obtained from 11 pre-menopaused women, aged under 45, who were undergoing liposuction or an aesthetic surgery in the supra-iliac region. Adipocyte isolation. The adipose tissues were first placed in Krebs buffer and transported to the laboratory. Fragments of fresh adipose tissue were then incubated in a collagenase type II solution (reconstituted in Krebs buffer, 5 mg of collagenase per gm of tissue; Sigma) for 30 minutes at 37° C. under agitation (100 rpm) in a controlled atmosphere (95% O2, 5% CO2) (Rodbell, 1964). After the incubation period, the cellular suspension was filtered through a 250 μm nylon mesh and separated from the stromal and vascular fraction by flotation. […] Adipocytes were counted using a Neubauer hemacytometer using trypan blue dye. […] Because free fatty acids can be re-esterified Inside the adipocyte while glycerol is not, lipolysis was evaluated by measuring the release of glycerol. Glycerol was indirectly measured by assessing the formation of NADH produced during its enzymatic transformation. NADH was measured using a spectrophotometer (Pharmacia LKB-Novaspec), at a wavelength of 340 nm. Results are expressed as μmol of glycerol released per 10^6 adipocytes per 30 minutes. […] The mean and standard deviation were calculated.

CC(C)NCC(O)c1ccc(O)c(O)c1 (stereo not drawn) [isoproterenol]
Increase of adipocyte lipolysis (adipocytes [1]): 15% | Increase of adipocyte lipolysis compared to control values (BASAL) (adipocytes [2]): 2.6 fold | Mean glycerol released (lipolysis) (adipocytes [2]; 37° C., N=11 individuals, BASAL mean 1.4): 3.7 μM of glycerol
